From ChEMBL document CHEMBL6153097, “Design, synthesis, and biological evaluation of Flavokavain B derivatives as potent TRF2 inhibitors for the treatment of Osteosarcoma” (Eur J Med Chem, 2025)
pIC50: −log10 of the molar value. The source made the active and inactive calls. The rule behind the calls is not given here.

Assays:
[1] = (§1) Inhibition of TRF2 expression in human MG-63 cells at 2 uM measured after 48 hrs by Western blot analysis relative to control; assay type: functional
[2] = (§2) Inhibition of TRF2 expression in human U2OS cells at 2 uM measured after 48 hrs by Western blot analysis relative to control; assay type: functional
[3] = Cytotoxicity against […] MLO-Y4 cells assessed as cell viability incubated for 48 hrs by MTT assay; assay type: toxicity, cell-based; conditions: mouse
U2OS [4] = test: Antiproliferative activity against human U2OS cells assessed as reduction in cell viability incubated for 48 hrs by MTT assay; assay type: functional, cell-based
MG-63 [5] = test: Antiproliferative activity against human MG-63 cells assessed as reduction in cell viability incubated for 48 hrs by MTT assay; assay type: functional, cell-based; conditions: MG-63, 48 h
MG-63 [6] = test: as §1; assay type: functional
U2OS [7] = test: as §2; assay type: functional

Row | pIC50 (U2OS [4]) | SMILES | inhibition at 2 µM [1] [%] | inhibition at 2 µM [2] [%] | IC50 at 48 h [3] [µM] | pIC50 (MG-63 [5]) | inhibition (MG-63 [6]) | inhibition (U2OS [7])
1 |  | COc1cc(OC)c2c(=O)cc(-c3cccc(Br)c3)oc2c1 | 23.8 | 33.7 |  |  |  | 
2 | 4.88 | O=C(/C=C/c1cccc(Br)c1)c1ccc2c(c1)OCCO2 | 48.5 | 39.5 | 76.5 | 5.17 |  | 
3 |  | COc1cc(OCC(=O)O)ccc1C(=O)/C=C/c1cccc(Br)c1 |  | 52.5 |  |  | inactive | 
4 |  | COc1cc(O)ccc1C(=O)/C=C/c1cc(Br)cc(Br)c1 | 22.2 | 42.1 |  |  |  | 
5 |  | COc1ccc(C(=O)/C=C/c2cccc(Br)c2)c(OC)c1 | 29.6 | 45.4 |  |  |  | 
6 | 4.48 | COc1cc(OCC(=O)O)ccc1C(=O)/C=C/c1cc(Br)cc(Br)c1 | 34.8 | 52 | > 100 | 4.64 |  | 
7 | 5.06 | COc1cc(O)c(C(=O)/C=C/c2cccc(Br)c2)c(OC)c1 | 37.8 | 18.3 | 19.6 | 5.36 |  | 
8 |  | COc1cc(O)c(C(=O)CCc2cccc(Br)c2)c(OC)c1 | 32.8 | 34.5 |  |  |  | 
9 |  | CCOC(=O)COc1ccc(C(=O)/C=C/c2cc(Br)cc(Br)c2)c(OC)c1 |  | 39.2 |  |  | inactive | 
10 |  | COc1ccc(C(=O)/C=C/c2cc(Br)cc(Br)c2)c(OC)c1 | 52.5 | 22.5 |  |  |  | 
11 |  | CCOc1ccc(C(=O)/C=C/c2cccc(Br)c2)c(OCC)c1 | 36.1 |  |  |  |  | inactive
12 |  | COc1cc(OC2CCCOC2)ccc1C(=O)/C=C/c1cccc(Br)c1 (stereo not given) | 23.7 | 31.8 |  |  |  | 
13 | 5.10 | COc1ccc(C(=O)/C=C/c2cccc(Br)c2)c(O)c1 | 44.8 | 51.7 | 7.93 | 5.15 |  | 
14 |  | COc1cc(OC2CCCOC2)ccc1C(=O)/C=C/c1cc(Br)cc(Br)c1 (stereo not given) | 32.2 |  |  |  |  | inactive
15 |  | COc1cccc(O)c1C(=O)/C=C/c1cccc(Br)c1 | 40.6 | 35 |  |  |  | 
16 |  | COc1cc(O)c(C(=O)/C=C/c2cc(Cl)ccn2)c(OC)c1 | 41.3 | 32.9 |  |  |  | 
17 |  | COc1cc(O)ccc1C(=O)/C=C/c1cccc(Br)c1 |  | 9.3 |  |  | inactive | 
18 |  | COc1cc(OC)c(C(=O)/C=C/c2cc(Br)cc(Br)c2)c(OC)c1 | 31.4 | 31.1 |  |  |  | 
19 |  | COc1cc(N2CCOCC2)ccc1C(=O)/C=C/c1cccc(Br)c1 | 22.7 | 25.1 |  |  |  | 
20 |  | O=C(/C=C/c1cc(Br)cc(Br)c1)c1ccc2c(c1)OCCO2 | 37.6 | 36.7 |  |  |  | 
21 |  | CCOC(=O)COc1ccc(C(=O)/C=C/c2cccc(Br)c2)c(OC)c1 |  | 37.3 |  |  | inactive | 
22 |  | COc1cc(N2CCOCC2)ccc1C(=O)/C=C/c1cc(Br)cc(Br)c1 | 40.2 | 33.2 |  |  |  | 
23 |  | CCOc1ccc(C(=O)/C=C/c2cc(Br)cc(Br)c2)c(OCC)c1 | 17.1 |  |  |  |  | inactive
24 |  | COc1cc(O)c(C(=O)/C=C/c2cc(Br)cc(Br)c2)c(OC)c1 | 22.1 | 13.8 |  |  |  | 
25 | 4.48 | COc1ccc(CNC(=O)Nc2ncc([N+](=O)[O-])s2)cc1 | 14.6 | 9.2 | > 100 | 4.42 |  | 
